# Experimental data from patent US7572774B2, “Methods for treating glutamate cytotoxicity with beta-naphthoquinone compounds” (Centre National de la Recherche Scientific (C.N.R.S.), priority 1999, dated 2009).
# Tested on: release of glutamate from synaptosomes of mouse brains
# Test: Release of glutamate from synaptosomes of mouse brains (cerebellar mossy fibers), spontaneous and induced by depolarization, chemiluminescence detection
# Format: cell-based
# Procedure: B: Study of the effect of naftazone and of its glucuronide derivatives on the release of glutamate from synaptosomes of mouse brains.
# In order to prepare the synaptosomes of mossy fibers, the Swiss-Webster […] are decapitated and the cerebellum is rapidly removed. Small pieces of tissue (1–2 mm^3) are washed in 100 ml of a mammal saline standard solution containing (mM): NaCl, 136; KCl, 5.6; MgCl2 1.2; CaCl2 2.2; glucose 5.5; NaHCO3 7.5; NaHPO4/Na2HPO4 buffer 1.2.
# An oxygen current is caused to flow through them for 10 minutes.
# In order to dissociate the pieces, they are sucked in a reciprocal movement with a 1 ml pipette.
# The homogenate obtained is diluted in 3 ml of mammal Krebs's solution and is filtered through a Nylon® tissue (mesh 50 μm).
# The filtrate is collected and left to settle for 30–45 min by gravity.
# Synaptosomes derived from the glutarmatergic mossy fibers settle because or their large size with the nuclear fraction. The supernatant is discarded and the sediment is resuspended in 1 ml of a standard solution. The release of glutamate from the synaptosomes is detected according to the technique used for evaluating it in the CSF.
# FIGS. 2A and 2B show the effects of naftazone (at concentrations of 0.5–50 μM) and of its glucuronidated derivative, respectively, on the spontaneous release of glutamate (curve -∘-) and of that induced by depolarization (curve -•-).
# Each point in A and B represents the ISEM average of 3 measurements carried out in triple. In A, the spontaneously released glutamate is continuously measured during an exposure of 1 hour to the tested drug and is compared with controls. Release of glutamate by depolarization is determined after a 1 hour exposure to the tested drug and is compared with controls.
# The drugs are left to incubate for 1 hour with synaptosomal aliquots before the measurement.
smiles,measurement,setting,value
"NC(=O)NNc1ccc2ccccc2c1O[C@@H]1O[C@H](C(=O)O)[C@@H](O)[C@H](O)[C@H]1O [glucuronidated derivative, 1-(1-hydroxy,2-naphthyl)semicarbazide-1-β-O-glucopyranosiduronic acid]",release of glutamate induced by a medium with a high K+ content,"K+ (20 mM) containing Ca (5 mM), FIG. 2B","reduces, in a dose-dependent way"
same,maximum reduction of K+-induced release of glutamate,"at highest concentration tested (32 μM), K+ 20 mM, Ca 5 mM",about 60%
same,spontaneous release of glutamate from synaptosomes,"glucuronidated derivative, range of the concentrations used (FIG. 2B)",does not reduce the spontaneous release of glutamate
